# Values quoted from earlier work in US20110165241A1, “BAZEDOXIFENE FORMULATIONS WITH ANTIOXIDANTS” (Wyeth LLC, priority 2009, published 2011).
# What was measured:
# uterine response = conditions: in vivo
# [1] = test system: ovariectomized rat model of osteopenia; conditions: in vivo
# [2] = test system: MCF-7 cell line (human breast cancer cell line)
compound,measurement,setting,value
"Cc1c(-c2ccc(O)cc2)n(Cc2ccc(OCCN3CCCCCC3)cc2)c2ccc(O)cc12 [bazedoxifene, 1-[4-(2-azepan-1-yl-ethoxy)-benzyl]-2-(4-hydroxy-phenyl)-3-methyl-1H-indol-5-ol]",stimulation of uterine response,uterine response,little or no stimulation of uterine response
same,effect on bone loss and cholesterol,[1],estrogen agonist-like effect in preventing bone loss and reducing cholesterol
same,estrogen receptor activity in MCF-7 cells,[2],behaves as an estrogen antagonist
